Measurements reported in patent US5948800A, “Preventive or therapeutic drug for Alzheimer's disease” (A. Nattermann & Cie. GmbH, priority 1996, dated 1999).
“Also recorded” adds a separate entry of the source.

Columns and labels:
PC12 cells [1] = experiment: Viability of PC12 cells in the presence of Aβ (MTT method); format: cell-based, rat; details: for Suppression of neuron death caused by Aβ (in words): Aβ 10 μM, compound 0.1, 1 or 2.5 μM, PC12; for viability at 0.1 µM / viability at 1 µM / viability at 2.5 µM: Rattus norvegicus, PC-12, 48 h, read-out: Viability of cells (% of control)
Description: PC12 cells (derived from rats, chromaffin tumor) were cultured and subcultured in a 100 mm dish (made of Corning) coated with polylysine and containing a DMEM medium supplemented with 10% FCS and 5% horse serum (product of Sigma). Briefly, PC12 cells (1×10^6 cells/dish) were seeded in a 100 mm dish coated with polylysine. In order to induce differentiation of the PC12 cells, the cells were grown for 7 days in a DMEM medium containing 5% FCS, 50 ng/ml NGF, and 1% horse serum. The PC12 cells were then peeled off through pipetting and suspended in a suitable medium to prepare a cell suspension. The cell suspension was seeded into each well of a polylysine-coated 96-well dish (1×10^4 cells/well). Subsequently, Aβ (Bachem Feinchmikalien AG) was added so that a final concentration of 10 μM was achieved. Compound A was also added so that a final concentration of 0.1, 1.0, or 2.5 μM was achieved. […] The cells were cultured for 48 hours from the addition of compound A or compound B.
An MTT reagent (3-(4,5-dimethylthiazole-2-yl)-2,5-diphenyl tetrazolium bromide) was added to the thus-treated cells, incubation was performed for 4 hours, and the cells were lysed. The subsequent procedure was performed using a so-called MTT method, which employs colorimetry based on a reduction reaction of the reagent, to thereby obtain the viability of the cells in the suspension (Behl, C. et al., Cell, 77: 817-827, 1994). [drawing 1]

PC12 cells [2] = experiment: Generation of hydrogen peroxide in PC12 cells to which SNAP was added (DCFH, FACS); format: cell-based, rat; details: for Amounts of generated H2O2 (% log fluorescence of control): n = 3
Description: PC12 cells (derived from rats, chromaffin tumor) were cultured and subcultured in a 100 mm dish (made of Corning) coated with polylysine and containing a DMEM medium supplemented with 10% FCS and 5% horse serum (product of Sigma). Briefly, PC12 cells (1×10^6 cells/dish) were seeded in a 100 mm dish coated with polylysine. In order to induce differentiation of the PC12 cells, the cells were grown for 7 days in a DMEM medium containing 5% FCS, 50 ng/ml NGF, and 1% horse serum. The PC12 cells were then peeled off through pipetting and suspended in a suitable medium to prepare a cell suspension. The cell suspension was seeded into each well of a […], polylysine-coated 96-well dish (1×10^4 cells/well). After adhesion of the cells was confirmed, the following procedure was performed.
The thus-adhered PC12 cells were placed in a DMEM medium. To the cells were added 10 μM of SNAP and 2.5 μM of compound A. For control groups, only SNAP was added. Each sample was incubated for 3 hours. Thereafter, a solution of DCFH-DA (Molecular Probes, Inc.) in DMSO (1 mg/413 μl) which had been prepared in advance was added to each PC12-containing sample so that a final concentration of 5 μM was obtained, and the samples were then incubated for 30 minutes. The cells were removed using trypsin-EDTA, and recovered via centrifugation (1,000 rpm×5 min.). The recovered cells were suspended in 50 μl of PBS(-) while being cooled with ice. The amount of intracellular hydrogen peroxide was determined using a flow cytometer; The cell suspension was subjected to FACS (fluorescence-activated cell sorting), and the amount of the fluorescent substance, […], which had been oxidized by peroxides was measured.

LD50 in mice = details: mouse, in vivo, oral
Source text: (§1) Toxicity of compound A has been studied by obtaining LD50 values in mice and rats.

LD50 in rats = details: rat, in vivo
Source text: as §1

mice or rats = experiment: Adverse side effects at high dose in mice or rats; format: in vivo
[3] = system: glutathione peroxidase-like activities; details: stated in description of control compound; cited from earlier work

O=c1c2ccccc2[se]n1-c1ccccc1 [Compound A, 2-phenyl-1,2-benzisoselenazol-3(2H)-one]
Suppression of neuron death caused by Aβ (in words) (PC12 cells [1]): neuron death suppressed significantly in all cases
viability at 0.1 µM (PC12 cells [1]): 45 ± 2.1%
viability at 1 µM (PC12 cells [1]): 59 ± 14.5%
viability at 2.5 µM (PC12 cells [1]): 66 ± 4.5%
Suppression of generation of hydrogen peroxide (in words) (PC12 cells [2]; SNAP 10 μM, compound A 2.5 μM, P≤0.0015): significantly suppressed; also recorded: satisfactorily suppressed
Amounts of generated H2O2 (% log fluorescence of control) (PC12 cells [2]; SNAP 10 μM, compound A 2.5 μM, P ≤ 0.0015 vs SNAP): 45.7 ± 6.03 % log fluorescence of control
Suppression of generation of hydrogen peroxide induced by Aβ (in words) (PC12 cells [2]; concluding statement): significantly suppresses generation of hydrogen peroxide
LD50 (LD50 in mice): ≥ 6810 mg/kg
LD50 (LD50 in rats; ip, intraperitoneal): 580 mg/kg
LD50 (LD50 in rats; oral): ≥ 6810 mg/kg
Adverse side effects (mice or rats): no problematic adverse side effects were observed

O=c1c2ccccc2sn1-c1ccccc1 [B, 2-phenyl-1,2-benzothiazol-3(2H)-one, reference compound]
Suppression of neuron death caused by Aβ (in words) (PC12 cells [1]): the death rate could not be suppressed
viability at 0.1 µM (PC12 cells [1]): 14 ± 4.5%
viability at 1 µM (PC12 cells [1]): 13 ± 1%
viability at 2.5 µM (PC12 cells [1]): 10 ± 5%
Glutathione peroxidase-like activities [3]: having no glutathione peroxidase-like activities

CC(=O)NC(C(=O)O)C(C)(C)SN=O (racemic) [SNAP, Snitroso-N-acetyl-DL-penicillamine, reference compound]
Amounts of generated H2O2 (% log fluorescence of control) (PC12 cells [2]; SNAP 10 μM alone): 135.8 ± 5.25 % log fluorescence of control
Increase of generation of hydrogen peroxide over the level without SNAP (PC12 cells [2]; SNAP 10 μM, 3 hours): 1.3-1.4 times
